Literature values, collected in PMC12281572.
“And” between values parts separate entries of the source, which are not always exact repeats. Equal entries are not always repeated.

Test: FTIR, 4-fluorophenol as donor (the pK_BHX database, per the paper)
Conditions: CCl4; 25 C

Structure (SMILES) | pK_BHX (log10 Kf of the 1:1 H-bond complex with 4-fluorophenol, by FTIR)
CCOS(=O)OCC | 1.07 log units
CC(C)CN=CN(C)C | 2.52 log units
CN(C)C=NCC(F)(F)F | 1.6 log units
CC(C)(C)I | -0.33 log units
C=CSCC | -0.13 log units
c1ccc2c(c1)ccc1ccccc12 | -0.53 log units
COC(=O)OC | 0.82 log units
O=C1CCCCCCCCCC1 | 1.2 log units
COC(=O)c1ccc(OC)cc1 | 1.08 log units
COc1cccc(C#N)c1 | 0.8 log units
N#Cc1ccc(C(F)(F)F)cc1 | 0.54 log units
CCCCCCCCN | 2.27 log units
CNCCNC | 2.29 log units
FC(F)(F)c1cccc(C2=NCCC2)c1 | 1.52 log units
Oc1cccc(C(F)(F)F)c1 | -0.36 log units
NCCCCN | 2.21 log units
CC1CCCO1 (centres unmarked) | 1.34 log units
C(=Nc1ccccc1)c1ccccc1 | 0.87 log units
CCCCNCCCC | 2.11 log units
CCN(CC)C(=O)c1ccccc1 | 2.26 log units
CC(=Nc1ccccc1)N(C)c1ccc(Br)cc1 | 1.38 log units
Cc1cccc(C)c1 | -0.28 log units
NC1CC1 | 1.72 log units
Cc1ccc(NC(=Nc2ccccc2)c2ccccc2)cc1 | 1.47 log units
CC(=O)N1CCOCC1 | 2.16 log units
c1cc2c3c(c1)CCCN3CCC2 | 0.39 log units

Structure (SMILES) | pK_BHX (log10 Kf of the 1:1 H-bond complex with 4-fluorophenol, by FTIR)
CC(C)(C)SC(C)(C)C | 0.4 log units
CN1C2CCCC1CC2 | 2.39 log units
ClCCCCCl | -0.47 log units
OC1CCCCC1 | 1.14 log units
Cc1ccc[n+]([O-])c1 | 2.92 log units
CN(C=O)c1ccccc1 | 1.74 log units
CC(=O)c1ccc(N2CCCCC2)cc1 | 1.71 log units
CC(=O)c1cccc(C)c1 | 1.1 log units
C1CCSC1 | 0.32 log units
NCCCN | 2.31 log units
c1ccc(N2CCCC2)cc1 | 0.16 log units
CNc1ccc(C)cc1 | 0.43 log units
C1CCSCC1 | 0.23 log units
Cc1cc[n+]([O-])cc1 | 3.12 log units
N#Cc1ccc(-c2ccccc2)cc1 | 0.83 log units
c1ccc2c(c1)CCCN2 | 0.7 log units
Cc1cccc(C)c1[N+](=O)[O-] | 0.29 log units
CN(C)C=Nc1ccc(C(F)(F)F)cc1 | 1.43 log units
CC(C)CN(C(C)C)C(C)C | 0.3 log units
COc1ccc(C(=S)N(C)C)cc1 | 1.16 log units
O=C(N(c1ccccc1)c1ccccc1)N(c1ccccc1)c1ccccc1 | 1.74 log units
C1CSCSC1 | -0.06 log units
CSc1ccccc1 | -0.32 log units and -0.48 log units
O=C1CCCCCO1 | 1.63 log units
COc1ccc(C(=O)N(C)C)cc1 | 2.31 log units
CCCCS(=O)CCCC | 2.65 log units

Structure (SMILES) | pK_BHX (log10 Kf of the 1:1 H-bond complex with 4-fluorophenol, by FTIR)
CC(C)(C)O | 1.14 log units
CCOC(=O)C(F)(F)F | 0.08 log units
CC1(C)CCC(C)(C)O1 | 1.43 log units
CNC(C)(C)C | 2.21 log units
C#CC(=O)OCC | 0.63 log units
Cc1ccc(CN=CN(C)C)cc1 | 2.36 log units
CC(C)C(=O)N(C)C | 2.26 log units
c1ccc2c(c1)OCCO2 | -0.23 log units
CC(C)C(=O)N(C1CCCCC1)C1CCCCC1 | 2.24 log units
O=c1cc(-c2ccccc2)oc2ccccc12 | 1.99 log units
CN1CCCC1=O | 2.38 log units
c1cncnc1 | 1.07 log units
CCN(CC)C(=O)N(CC)CC | 2.43 log units
CSc1ccc(C(C)=O)cc1 | 1.21 log units
c1ccc(C(c2ccccc2)c2ccccc2)cc1 | -0.5 log units
C1=CCCCC1 | -0.82 log units
C=CCNC | 2.0 log units
FC1C2CC3CC(C2)CC1C3 (centres unmarked) | -0.02 log units
N#Cc1cccc(Br)c1 | 0.65 log units
CS(=O)c1ccccc1 (centres unmarked) | 2.24 log units
CC(=O)c1ccc(N=CN(C)C)cc1 | 1.7 log units and 1.52 log units
Cc1nc2ccccc2o1 | 1.48 log units
O=C1CCCCCCC1 | 1.45 log units
CC(C)N(C(=O)C(C)(C)C)C(C)C | 2.03 log units
O=Cc1ccc(Cl)cc1 | 0.63 log units
CCN(C)C | 2.17 log units

Structure (SMILES) | pK_BHX (log10 Kf of the 1:1 H-bond complex with 4-fluorophenol, by FTIR)
O=C1CCCCCC1 | 1.41 log units
CCOC(=O)c1ccc(C)cc1 | 1.05 log units
COc1ccc(Cl)cc1 | -0.25 log units
COC(C(F)(F)F)C(F)(F)F | -0.41 log units
CSC(C)(C)C | 0.25 log units
O=C1CCC1 | 1.0 log units
CCN(CC)c1ccncc1 | 2.89 log units
COc1ccncc1 | 2.13 log units
CN(C)C=NC(=S)SCc1ccccc1 | 1.1 log units
c1ccc2c(c1)CCO2 | 0.21 log units
CC(=Nc1ccc(C)cc1)N(C)c1ccccc1 | 1.75 log units
IC1CCCCC1 | -0.32 log units
CC(C)c1ccccn1 | 1.76 log units
c1ccc2nc3ccccc3nc2c1 | 1.22 log units
CC(=O)C12CC3CC(CC(C3)C1)C2 | 1.3 log units
CC(C)S | -0.1 log units
C1C2CC3CC1CC(C2)C3C1OC1C1C2CC3CC(C2)CC1C3 (centres unmarked) | 1.44 log units
CC(=O)c1ccc2ccccc2c1 | 1.13 log units
CN(C)C=NCC(C)(C)C | 2.26 log units
CC1=NCCC1 | 2.59 log units
CCCCNC | 2.24 log units
Cc1ccc(C)cc1 | -0.29 log units
CSC | 0.12 log units
